# Literature values, collected in US20130338178A1, “SIRTUIN MODULATORS AS INHIBITORS OF CYTOMEGALOVIRUS” (THE TRUSTEES OF PRINCETON UNIVERSITY, priority 2011, published 2013).
# Key:
# [1] = target: T1, SIRT1 (Homo sapiens, UniProt Q96EB6); conditions: cited from earlier work
# T1 sequence (Q96EB6 1-747): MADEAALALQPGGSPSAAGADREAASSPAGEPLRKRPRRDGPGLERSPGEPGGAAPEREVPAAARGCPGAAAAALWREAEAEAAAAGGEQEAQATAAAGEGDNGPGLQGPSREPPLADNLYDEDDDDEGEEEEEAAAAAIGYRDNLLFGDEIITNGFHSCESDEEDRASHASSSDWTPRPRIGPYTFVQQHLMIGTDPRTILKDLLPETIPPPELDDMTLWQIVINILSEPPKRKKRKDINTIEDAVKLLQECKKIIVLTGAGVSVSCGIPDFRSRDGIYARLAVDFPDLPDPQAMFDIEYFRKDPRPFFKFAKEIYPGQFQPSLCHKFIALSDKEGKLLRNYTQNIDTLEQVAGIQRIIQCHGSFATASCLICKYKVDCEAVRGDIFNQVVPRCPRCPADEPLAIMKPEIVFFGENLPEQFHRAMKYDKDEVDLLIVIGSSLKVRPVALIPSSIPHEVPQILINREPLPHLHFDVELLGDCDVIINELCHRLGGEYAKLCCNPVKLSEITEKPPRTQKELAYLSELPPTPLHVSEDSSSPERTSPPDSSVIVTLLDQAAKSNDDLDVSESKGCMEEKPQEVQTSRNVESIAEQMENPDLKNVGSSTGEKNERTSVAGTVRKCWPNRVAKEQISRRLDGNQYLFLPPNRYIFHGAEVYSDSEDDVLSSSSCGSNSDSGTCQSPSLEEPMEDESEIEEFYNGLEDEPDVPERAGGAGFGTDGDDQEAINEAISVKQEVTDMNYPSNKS
# [2] = target: T2, sirtuin (Homo sapiens, UniProt Q8IXJ6); conditions: cited from earlier work
# T2 sequence (Q8IXJ6 2-389 limits assumed): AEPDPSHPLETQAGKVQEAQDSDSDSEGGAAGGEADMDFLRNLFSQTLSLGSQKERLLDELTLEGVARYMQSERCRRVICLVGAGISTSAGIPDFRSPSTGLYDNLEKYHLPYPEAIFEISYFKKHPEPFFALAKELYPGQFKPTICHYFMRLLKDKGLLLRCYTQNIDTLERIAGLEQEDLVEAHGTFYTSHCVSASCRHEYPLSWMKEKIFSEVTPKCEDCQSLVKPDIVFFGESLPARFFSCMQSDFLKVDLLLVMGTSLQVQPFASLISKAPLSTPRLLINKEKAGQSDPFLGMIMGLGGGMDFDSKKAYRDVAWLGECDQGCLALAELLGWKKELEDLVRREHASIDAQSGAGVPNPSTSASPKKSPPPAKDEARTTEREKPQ
# [3] = target: T1, SIRT1; conditions: n = 2; cited from earlier work
# [4] = target: T3, SIRT2 (Homo sapiens, UniProt Q8IXJ6); conditions: cited from earlier work; for Inhibition (at 60 μM ± SE (%)) SIRT2: n = 2
# T3 sequence (Q8IXJ6 1-389): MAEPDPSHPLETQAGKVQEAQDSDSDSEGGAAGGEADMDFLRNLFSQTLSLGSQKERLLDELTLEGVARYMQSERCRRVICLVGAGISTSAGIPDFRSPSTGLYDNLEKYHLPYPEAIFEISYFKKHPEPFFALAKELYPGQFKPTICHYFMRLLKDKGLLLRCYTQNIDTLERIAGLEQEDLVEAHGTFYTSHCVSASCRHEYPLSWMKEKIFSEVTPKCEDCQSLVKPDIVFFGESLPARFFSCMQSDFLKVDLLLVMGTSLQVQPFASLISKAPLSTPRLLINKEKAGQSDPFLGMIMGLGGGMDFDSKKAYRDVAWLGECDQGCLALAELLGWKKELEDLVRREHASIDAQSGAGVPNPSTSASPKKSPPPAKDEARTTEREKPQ
# [5] = target: Hst2 (Saccharomyces cerevisiae, UniProt P53686); conditions: cited from earlier work
# [6] = target: T3, SIRT2; conditions: cited from earlier work
# [7] = target: Sirt6 (Homo sapiens, UniProt Q8N6T7); conditions: cited from earlier work
# Sequence of Sirt6 (Q8N6T7 whole entry): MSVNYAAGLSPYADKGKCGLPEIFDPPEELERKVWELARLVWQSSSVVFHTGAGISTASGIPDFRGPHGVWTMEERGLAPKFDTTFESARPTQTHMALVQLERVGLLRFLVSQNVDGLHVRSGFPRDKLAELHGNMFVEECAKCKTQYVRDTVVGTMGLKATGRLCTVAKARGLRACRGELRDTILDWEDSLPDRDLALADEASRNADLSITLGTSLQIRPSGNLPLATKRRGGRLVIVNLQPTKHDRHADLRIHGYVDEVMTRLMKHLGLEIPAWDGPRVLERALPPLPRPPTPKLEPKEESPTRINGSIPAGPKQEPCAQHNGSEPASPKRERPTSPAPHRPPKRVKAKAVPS
# Sequence of Hst2 (P53686 whole entry): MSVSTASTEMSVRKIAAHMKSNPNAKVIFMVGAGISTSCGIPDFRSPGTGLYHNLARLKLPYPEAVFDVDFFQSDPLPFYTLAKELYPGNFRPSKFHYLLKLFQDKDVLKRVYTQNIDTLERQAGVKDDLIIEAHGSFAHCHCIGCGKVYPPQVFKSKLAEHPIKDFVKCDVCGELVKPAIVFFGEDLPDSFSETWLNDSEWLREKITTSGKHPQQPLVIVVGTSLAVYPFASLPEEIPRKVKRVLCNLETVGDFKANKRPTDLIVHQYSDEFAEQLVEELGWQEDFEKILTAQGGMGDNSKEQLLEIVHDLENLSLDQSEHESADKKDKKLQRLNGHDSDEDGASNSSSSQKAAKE
compound,measurement,setting,value
COc1cc(C(=O)Nc2ccccc2-c2cn3c(CN4CCNCC4)csc3n2)cc(OC)c1OC [SRT1460],EC1.5: The concentration to activate 1.5-fold,[1],2.9 µM
Oc1cccc(CNc2ccc(NCc3cccc(O)c3)cc2)c1 [4c],"inhibition at 200 μM ± SD, %",[2],8 ± 0.4%
O=c1[nH]c(=S)[nH]c(-c2cccc(Br)c2)c1Cc1c(O)ccc2ccccc12 [Compd 6viii],Inhibition (at 60 μM ± SE (%)) SIRT1,[3],4.8 ± 1%
same,Inhibition (at 60 μM ± SE (%)) SIRT2,[4],6.6 ± 3%
"Cc1ccc(C(=O)Nc2ccc(S(=O)(=O)O)c3cc(S(=O)(=O)O)cc(S(=O)(=O)O)c23)cc1NC(=O)c1cccc(NC(=O)Nc2cccc(C(=O)Nc3cc(C(=O)Nc4ccc(S(=O)(=O)O)c5cc(S(=O)(=O)O)cc(S(=O)(=O)O)c45)ccc3C)c2)c1 [Suramin, suramin]",IC50,[5],240 ± 70 µM
O=C1OC2(c3ccc(O)cc3Oc3cc(O)ccc32)c2c1c(-c1ccccc1)c(-c1ccccc1)c(-c1ccccc1)c2-c1ccccc1 [CSC28],Sirt2 effect,[6],inhibition
same,Sirt6 effect,[7],activation
c1cc2c(ccc3ncc[nH]c32)n1 [Pyrroloquinoxaline],activation at this concentration,[1]; 10 μM,*233% activation at this concentration
same,EC1.5: The concentration to activate 1.5-fold,[1],10 µM
COc1ccccc1C=Nc1ccc(N=Cc2ccccc2OC)cc1 [3f],"inhibition at 200 μM ± SD, %",[2],13 ± 0.5%
O=C1c2ccccc2C(=O)c2c(NCc3cc4c5c(ccc6c7ccc8c9c(cc(Nc%10cccc%11c%10C(=O)c%10ccccc%10C%11=O)c(c3c56)c97)-c3ccccc3C8=O)C(=O)c3ccccc3-4)cccc21 [CSC6],Sirt2 effect,[6],inhibition
same,Sirt6 effect,[7],inhibition
O=C1CCc2c(ccc3ccccc23)O1 [Splitomycin],IC50,[5],> 600 µM
Oc1cccc(C=Nc2ccc(N=Cc3cccc(O)c3)cc2)c1 [3c],"inhibition at 200 μM ± SD, %",[2],12 ± 0.9%
O=c1[nH]c(=S)[nH]c(-c2ccc(Cl)cc2)c1Cc1c(O)ccc2ccccc12 [Compd 6iv],Inhibition (at 60 μM ± SE (%)) SIRT1,[3],13.7 ± 1%
same,Inhibition (at 60 μM ± SE (%)) SIRT2,[4],20.1 ± 1%
O=c1[nH]c(=S)[nH]c(-c2ccc(I)cc2)c1Cc1c(O)ccc2ccccc12 [Compd 6v],Inhibition (at 60 μM ± SE (%)) SIRT1,[3],7.7 ± 1%
same,Inhibition (at 60 μM ± SE (%)) SIRT2,[4],7.7 ± 1%
Oc1ccc(C=Nc2ccc(N=Cc3ccc(O)cc3)cc2)cc1 [3d],"inhibition at 200 μM ± SD, %",[2],22 ± 1.6%
COc1cccc(C=Nc2ccc(N=Cc3cccc(OC)c3)cc2)c1 [3g],"inhibition at 200 μM ± SD, %",[2],20 ± 1.2%
Cc1cc(N2CCOCC2)nc2ccc(Cc3ccc4nc(N5CCOCC5)cc(C)c4c3)cc12 [CSC4],Sirt2 effect,[6],inhibition
c1ccc(CNc2ccc(NCc3ccccc3)cc2)cc1 [4a],"inhibition at 200 μM ± SD, %",[2],21 ± 1.7%
O=c1[nH]c(=S)[nH]c(-c2ccc(Br)cc2)c1Cc1c(O)ccc2ccccc12 [Compd 6b],IC50,[4]; determined for compounds with over 60% inhibition at 60 μM,> 90 µM
Oc1ccccc1CNc1ccc(NCc2ccccc2O)cc1 [4b],"inhibition at 200 μM ± SD, %",[2],27 ± 2.4%
O=c1[nH]c(=S)[nH]c(-c2cccc(Cl)c2)c1Cc1c(O)ccc2ccccc12 [Compd 6ix],Inhibition (at 60 μM ± SE (%)) SIRT1,[3],11.3 ± 1%
same,Inhibition (at 60 μM ± SE (%)) SIRT2,[4],7.6 ± 6%
Oc1ccccc1C=Nc1ccc(N=Cc2ccccc2O)cc1 [3b],"inhibition at 200 μM ± SD, %",[2],56 ± 8.2%
O=C(Nc1ccccc1-c1cn2c(CN3CCNCC3)csc2n1)c1cnc2ccccc2n1 [SRT1720],EC1.5: The concentration to activate 1.5-fold,[1],0.16 µM
O=c1[nH]c(=S)[nH]c(-c2ccc(C(F)(F)F)cc2)c1Cc1c(O)ccc2ccccc12 [Compd 6vi],Inhibition (at 60 μM ± SE (%)) SIRT1,[3],15.1 ± 1%
same,Inhibition (at 60 μM ± SE (%)) SIRT2,[4],6.7 ± 1%
[H]/N=C(\c1cc(C)cc(C)c1)c1ccccc1Cc1cccc2ccccc12 [CSC23],Sirt2 effect,[6],inhibition
O=c1[nH]c(=S)[nH]c(-c2ccccc2Br)c1Cc1c(O)ccc2ccccc12 [Compd 6vii],Inhibition (at 60 μM ± SE (%)) SIRT1,[3],19.7 ± 1%
O=C1C2C3c4ccccc4C(c4ccccc43)C2C(=O)N1c1ccc(OCc2ccccc2)cc1 (stereo not shown) [CSC34],Sirt2 effect,[6],inhibition
same,Sirt6 effect,[7],activation
Oc1ccc(CNc2ccc(NCc3ccc(O)cc3)cc2)cc1 [4d],"inhibition at 200 μM ± SD, %",[2],14 ± 0.5%
C(=Nc1ccc(N=Cc2ccccc2)cc1)c1ccccc1 [3a],"inhibition at 200 μM ± SD, %",[2],35 ± 1.4%
c1cnc2ocnc2c1 [Oxazolopyridine],EC1.5: The concentration to activate 1.5-fold,[1],0.09 µM
